# Results from the supplement of paper PMC10307832.
# Legend:
# Experiment in all cases: relative viability (nuclei count vs DMSO), 5 days (fraction); higher = more cells survive
# Dabrafenib + Trametinib = compound: CC(C)(C)c1nc(-c2cccc(NS(=O)(=O)c3c(F)cccc3F)c2F)c(-c2ccnc(N)n2)s1 [Dabrafenib] + CC(=O)Nc1cccc(-n2c(=O)n(C3CC3)c(=O)c3c(Nc4ccc(I)cc4F)n(C)c(=O)c(C)c32)c1 [Trametinib] (partner 0.02 µM)
# Summary of the method: (§1)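 Nuclei were stained with Hoechst during a one-step fixation (final 0.05% Triton X-100, 1% formaldehyde, 1 ug/ml Hoechst) carried out 5 days after dosing, then counted on 4× images. The cells, lung cancer lines in 1536-well plates, had been dosed by pin tool the day after seeding with one drug alone or a fixed anchor-drug dose plus five library-drug doses (not always all listed) in √10 steps. Relative viability is the nuclei count in treated wells divided by that in vehicle wells, and each value is the median of duplicate plates.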
# Dabrafenib + Alpelisib = compound: CC(C)(C)c1nc(-c2cccc(NS(=O)(=O)c3c(F)cccc3F)c2F)c(-c2ccnc(N)n2)s1 [Dabrafenib] + Cc1nc(NC(=O)N2CCC[C@H]2C(N)=O)sc1-c1ccnc(C(C)(C)C(F)(F)F)c1 [Alpelisib] (partner 2 µM)
# Summary of the method: as §1
# Dabrafenib + Phenformin = compound: CC(C)(C)c1nc(-c2cccc(NS(=O)(=O)c3c(F)cccc3F)c2F)c(-c2ccnc(N)n2)s1 [Dabrafenib] + N=C(N)NC(=N)NCCc1ccccc1 [Phenformin] (partner 250 µM)
# Summary of the method: as §1
# VX-702 + Vorinostat = compound: NC(=O)c1ccc(N(C(N)=O)c2c(F)cccc2F)nc1-c1ccc(F)cc1F [VX-702] + O=C(CCCCCCC(=O)Nc1ccccc1)NO [Vorinostat] (partner 1 µM)
# Summary of the method: as §1
Cell Line,relative viability (Dabrafenib + Trametinib; first compound 0.009487 µM),relative viability (Dabrafenib + Trametinib; first compound 0.03 µM),relative viability (Dabrafenib + Trametinib; first compound 0.09487 µM),relative viability (Dabrafenib + Trametinib; first compound 0.3 µM),relative viability (Dabrafenib + Alpelisib; first compound 0.003 µM),relative viability (Dabrafenib + Alpelisib; first compound 0.009487 µM),relative viability (Dabrafenib + Alpelisib; first compound 0.03 µM),relative viability (Dabrafenib + Alpelisib; first compound 0.09487 µM),relative viability (Dabrafenib + Alpelisib; first compound 0.3 µM),relative viability (Dabrafenib + Phenformin; first compound 0.009487 µM),relative viability (Dabrafenib + Phenformin; first compound 0.03 µM),relative viability (Dabrafenib + Phenformin; first compound 0.09487 µM),relative viability (Dabrafenib + Phenformin; first compound 0.3 µM),relative viability (VX-702 + Vorinostat; first compound 0.02 µM),relative viability (VX-702 + Vorinostat; first compound 0.2 µM),relative viability (VX-702 + Vorinostat; first compound 0.6325 µM),relative viability (VX-702 + Vorinostat; first compound 2 µM),relative viability (Dabrafenib + Trametinib; first compound 0.003 µM),relative viability (Dabrafenib + Phenformin; first compound 0.003 µM)
PC-14,0.976,0.944,0.708,1,0.901,0.946,0.938,0.892,0.833,0.493,0.623,0.583,0.83,0.806,0.774,0.74,0.531,,
RERF-LC-KJ,0.939,0.961,0.944,1.05,0.73,0.979,0.781,0.848,0.953,0.435,0.43,0.447,0.546,0.693,0.686,0.716,0.694,0.811,0.432
ChaGo-K-1,0.929,0.933,0.875,0.905,,,,,,0.446,0.472,0.418,0.556,0.84,0.7,0.79,0.795,0.884,0.315
H3255,0.584,0.668,0.639,0.789,0.647,0.813,0.684,0.669,0.664,0.444,0.338,0.391,0.383,0.757,,0.598,0.866,0.641,0.345
NCI-H1299,,,,,1.14,0.982,1.03,0.87,0.757,,,,,,,,,,
NCI-H1563,,,,,0.944,0.971,0.853,0.777,1.06,0.667,0.653,0.752,0.748,,,,,,0.622
SK-MES-1,0.653,0.747,0.712,0.827,0.91,0.828,0.933,0.683,0.611,0.757,0.665,0.543,0.508,1.09,1.08,1.06,1.11,,0.582
NCI-H1648,0.524,,0.425,0.585,,,,,,,,,,0.242,0.271,0.397,0.364,0.457,
NCI-H1755,0.733,0.758,0.75,0.749,0.907,0.937,0.734,0.904,0.875,0.627,0.544,0.591,0.629,0.929,0.748,0.731,0.877,0.779,0.565
NCI-H1651,0.843,0.823,0.861,0.814,0.994,1.01,0.859,0.935,0.904,0.352,0.293,0.353,0.347,0.536,0.558,0.53,0.586,0.85,0.35
NCI-H23,0.425,0.364,0.34,0.508,,0.787,0.554,0.652,0.791,0.816,0.762,0.51,0.687,0.491,0.566,0.575,0.669,,
A549,,,,,0.641,0.949,0.83,0.754,0.705,0.18,0.191,0.173,0.151,,,,,,
NCI-H661,0.527,0.59,0.556,0.568,0.259,0.707,0.382,0.432,0.687,0.277,0.268,0.323,0.306,0.775,0.786,0.76,0.816,0.562,0.256
NCI-H650,0.913,1.01,0.942,1.04,,1.09,0.953,0.906,0.706,0.475,0.393,0.262,0.35,0.607,0.309,0.494,0.609,,
NCI-H2009,0.266,0.312,0.354,0.399,1.1,1.08,1.05,0.886,0.934,0.426,0.341,0.312,0.268,0.791,0.847,0.907,1.03,0.262,0.412
LC-2-ad,0.931,0.901,0.862,0.992,0.907,0.824,0.891,0.835,0.882,0.594,0.587,0.517,0.621,0.693,0.678,0.773,0.803,0.891,
HCC-366,0.348,0.225,0.374,0.396,,0.435,0.145,0.374,0.59,0.672,0.539,0.483,0.612,0.402,0.38,0.427,0.133,0.324,0.325
